From PubChem BioAssay AID1963976 (Molecular Pharmacology Branch, DTP, NCI, 2024)

Tested on: 435261-313-R-J1-PDC tumor spheroid viability
Test: Anticancer human tumor 435261-313-R-J1-PDC patient-derived colon adenocarcinoma cell line growth inhibition [PI3K]
Conditions: spheroids with HUVEC and MSC; for IC50: curve of first compound; for viability, T/C: stronger effect = lower value
Procedure, shortened: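 Tumor cells were combined with HUVEC and MSCs into spheroids, then dosed with PI3K-inhibitor combinations over half-log ranges capped near clinical Cmax or 10 microM.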

[1] = second compound 0.0316 µM, first compound 0.0316 µM
[2] = second compound 0.0316 µM, first compound 0.1 µM
[3] = second compound 0.0316 µM, first compound 0.316 µM
[4] = second compound 0.0316 µM, first compound 1 µM
[5] = second compound 0.0316 µM, first compound 3.16 µM
[6] = second compound 0.0316 µM, first compound 10 µM
[7] = second compound 0.1 µM, first compound 0.0316 µM
[8] = second compound 0.1 µM, first compound 0.1 µM
[9] = second compound 0.1 µM, first compound 0.316 µM
[10] = second compound 0.1 µM, first compound 1 µM
[11] = second compound 0.1 µM, first compound 3.16 µM
[12] = second compound 0.1 µM, first compound 10 µM
[13] = second compound 0.316 µM, first compound 0.0316 µM
[14] = second compound 0.316 µM, first compound 0.1 µM
[15] = second compound 0.316 µM, first compound 0.316 µM
[16] = second compound 0.316 µM, first compound 1 µM
[17] = second compound 0.316 µM, first compound 3.16 µM
[18] = second compound 0.316 µM, first compound 10 µM
[19] = second compound 1 µM, first compound 0.0316 µM
[20] = second compound 1 µM, first compound 0.1 µM
[21] = second compound 1 µM, first compound 0.316 µM
[22] = second compound 1 µM, first compound 1 µM
[23] = second compound 1 µM, first compound 3.16 µM
[24] = second compound 1 µM, first compound 10 µM
[25] = second compound 3.16 µM, first compound 0.0316 µM
[26] = second compound 3.16 µM, first compound 0.1 µM
[27] = second compound 3.16 µM, first compound 0.316 µM
[28] = second compound 3.16 µM, first compound 1 µM
[29] = second compound 3.16 µM, first compound 3.16 µM
[30] = second compound 3.16 µM, first compound 10 µM
[31] = second compound 10 µM, first compound 0.0316 µM
[32] = second compound 10 µM, first compound 0.1 µM
[33] = second compound 10 µM, first compound 0.316 µM
[34] = second compound 10 µM, first compound 1 µM
[35] = second compound 10 µM, first compound 3.16 µM
[36] = second compound 10 µM, first compound 10 µM
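Also: spheroids exposed to compounds for 7 days.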

Compound: CC1(C)CCC(CN2CCN(c3ccc(C(=O)NS(=O)(=O)c4ccc(NCC5CCOCC5)c([N+](=O)[O-])c4)c(Oc4cnc5[nH]ccc5c4)c3)CC2)=C(c2ccc(Cl)cc2)C1 + CC(Nc1ncnc2nc[nH]c12)c1cc2cccc(Cl)c2c(=O)n1-c1ccccc1
- IC50 (second compound 0.0316 µM): > 10 µM
- IC50 (second compound 0.1 µM): > 10 µM
- IC50 (second compound 0.316 µM): > 10 µM
- IC50 (second compound 1 µM): > 10 µM
- IC50 (second compound 3.16 µM): > 10 µM
- IC50 (second compound 10 µM): < 0.0316 µM
- viability, T/C [1]: 79.5%
- viability, T/C [2]: 92%
- viability, T/C [3]: 71.5%
- viability, T/C [4]: 80%
- viability, T/C [5]: 86.9%
- viability, T/C [6]: 95%
- viability, T/C [7]: 66.1%
- viability, T/C [8]: 78.2%
- viability, T/C [9]: 81.3%
- viability, T/C [10]: 71.6%
- viability, T/C [11]: 94.5%
- viability, T/C [12]: 84.9%
- viability, T/C [13]: 77.5%
- viability, T/C [14]: 100%
- viability, T/C [15]: 87.2%
- viability, T/C [16]: 77.3%
- viability, T/C [17]: 77.4%
- viability, T/C [18]: 52.2%
- viability, T/C [19]: 87.6%
- viability, T/C [20]: 66.1%
- viability, T/C [21]: 66.4%
- viability, T/C [22]: 64%
- viability, T/C [23]: 73.2%
- viability, T/C [24]: 46.6%
- viability, T/C [25]: 65.3%
- viability, T/C [26]: 72.6%
- viability, T/C [27]: 87.2%
- viability, T/C [28]: 72.3%
- viability, T/C [29]: 77%
- viability, T/C [30]: 76.7%
- viability, T/C [31]: 41.6%
- viability, T/C [32]: 60.8%
- viability, T/C [33]: 32.7%
- viability, T/C [34]: 62.9%
- viability, T/C [35]: 50.3%
- viability, T/C [36]: 43.9%

Compound: C[C@@H](NC(=O)c1ncnc(N)c1Cl)c1ncc(C(=O)Nc2cc(C(F)(F)F)c(Cl)cn2)s1 + CC(Nc1ncnc2nc[nH]c12)c1cc2cccc(Cl)c2c(=O)n1-c1ccccc1
- IC50 (second compound 0.0316 µM): > 10 µM
- IC50 (second compound 0.1 µM): > 10 µM
- IC50 (second compound 0.316 µM): > 10 µM
- IC50 (second compound 1 µM): > 10 µM
- IC50 (second compound 3.16 µM): > 10 µM
- IC50 (second compound 10 µM): 3.52 µM
- viability, T/C [1]: 158%
- viability, T/C [2]: 182%
- viability, T/C [3]: 124%
- viability, T/C [4]: 145%
- viability, T/C [5]: 153%
- viability, T/C [6]: 118%
- viability, T/C [7]: 128%
- viability, T/C [8]: 172%
- viability, T/C [9]: 153%
- viability, T/C [10]: 144%
- viability, T/C [11]: 147%
- viability, T/C [12]: 104%
- viability, T/C [13]: 112%
- viability, T/C [14]: 150%
- viability, T/C [15]: 135%
- viability, T/C [16]: 145%
- viability, T/C [17]: 150%
- viability, T/C [18]: 64.8%
- viability, T/C [19]: 146%
- viability, T/C [20]: 146%
- viability, T/C [21]: 147%
- viability, T/C [22]: 175%
- viability, T/C [23]: 144%
- viability, T/C [24]: 96.1%
- viability, T/C [25]: 119%
- viability, T/C [26]: 141%
- viability, T/C [27]: 111%
- viability, T/C [28]: 148%
- viability, T/C [29]: 91.4%
- viability, T/C [30]: 44.6%
- viability, T/C [31]: 72.8%
- viability, T/C [32]: 131%
- viability, T/C [33]: 88.7%
- viability, T/C [34]: 93.2%
- viability, T/C [35]: 51%
- viability, T/C [36]: 39.9%
